PubChem BioAssay (NCI)
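Compound exposure: 48 hours, 5 concentrations, 96-well plates. GI50 is the concentration that inhibits growth by half. At the TGI there is no net growth.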

Experiments:
Assay in all cases: inhibition of tumour cell growth, NCI panel, 48 h
[1] = test system: XF 498 CNS
[2] = test system: RPMI-8226 leukemia
[3] = test system: DU-145 prostate
[4] = test system: NCI-H23 lung
[5] = test system: SNB-75 CNS
[6] = test system: EKVX NSCLC
[7] = test system: SF-539 CNS
[8] = test system: LXFL 529 NSCLC
[9] = test system: SNB-19 CNS
[10] = test system: SNB-78 CNS
[11] = test system: SK-MEL-5 melanoma

Row | Compound | TGI [1] [µM] | GI50 [2] [µM] | TGI [2] [µM] | TGI [3] [µM] | TGI [4] [µM] | TGI [5] [µM] | TGI [6] [µM] | TGI [7] [µM] | TGI [8] [µM] | TGI [9] [µM] | TGI [10] [µM] | TGI [11] [µM] | GI50 [4] [µM] | GI50 [5] [µM] | GI50 [9] [µM]
1 | O=c1[nH]c(=O)n(C2OC(CO)C(O)C2O)cc1F (stereo not drawn) | > 100 | 0.0742 | 44.8 | > 100 | > 43.9 | > 100 | > 93.8 | 3.03 | > 100 | > 100 | 60.1 | 38.4 | – | – | –
2 | Cc1ccc(NC(=O)CCC(=O)C2Cc3ccccc3C2=O)cc1C (stereo not drawn) | > 100 | – | > 100 | – | > 100 | > 100 | > 100 | > 100 | > 100 | > 100 | > 100 | > 100 | – | – | –
3 | C=C1C(C(=O)O)C1C(=O)O (stereo not drawn) | > 100 | – | > 100 | – | > 100 | > 100 | > 100 | > 100 | – | > 100 | > 100 | > 100 | – | – | –
4 | NC(=O)c1ncn2c(=O)n(CCCl)nnc12 | 149 | – | 1250 | 520 | 330 | 205 | 436 | 164 | – | 995 | 527 | 324 | > 72.8 | 23.7 | 69
5 | CCc1ccccc1NC(=O)C(=O)C(C#N)c1c(Cl)cccc1Cl (stereo not drawn) | > 100 | – | > 100 | – | > 100 | > 100 | > 100 | > 100 | > 100 | > 100 | > 100 | – | – | – | –
6 | COc1ccc(/C=C/c2nc(=S)[nH][nH]2)cc1OC | > 100 | – | > 100 | – | > 100 | > 100 | – | > 100 | > 100 | > 100 | > 100 | > 100 | – | – | –
7 | O=C1C2C3C=C4c5ccccc5N(c5ccccc5)C4([C@@H]2C(=O)N1c1ccc(F)cc1)[C@H]1C(=O)N(c2ccc(F)cc2)C(=O)[C@@H]31 (stereo partly drawn) | > 100 | – | > 100 | – | > 100 | > 100 | > 100 | > 100 | – | > 100 | > 100 | – | – | – | –
8 | O=C1c2ccccc2C(=O)c2sc(Nc3ccc([N+](=O)[O-])cc3)nc21 | 4.18 | – | 9.1 | 33.5 | 9.77 | 21.1 | 23.2 | 15.3 | 3.06 | 25.7 | 42 | 6.38 | – | – | –
9 | CNC(=O)NCCN1N=C(C)/C(=C\c2ccccc2)CC1=O | > 100 | – | > 100 | – | > 100 | > 100 | – | > 100 | > 100 | > 100 | > 100 | > 100 | – | – | –
10 | N#CC(C#N)=C1CCC2C(=C(C#N)C#N)CCC12 (stereo not drawn) | > 100 | – | > 100 | – | > 100 | > 100 | > 100 | > 100 | > 100 | > 100 | > 100 | > 100 | – | – | –
11 | N#CC1=C(c2ccccc2)OC2(N)OC(c3ccccc3)=C(C#N)C12C#N (stereo not drawn) | > 100 | – | > 100 | – | > 100 | > 100 | > 100 | > 100 | > 100 | > 100 | > 100 | > 100 | – | – | –
12 | C/C=C1/C(=Cc2[nH]c(C=c3[nH]/c(=C/C4=NC(=O)C(CC)=C4C)c(C)c3CCC(=O)O)c(CCC(=O)O)c2C)NC(=O)C1C (stereo not drawn) | 17.5 | – | – | – | > 50 | > 50 | > 50 | 23 | > 50 | > 50 | > 50 | – | – | – | –
13 | CCOC(=O)CCn1cnc(N)n1 | > 100 | – | > 100 | – | > 100 | > 100 | > 100 | > 100 | > 100 | > 100 | > 100 | > 100 | – | – | –
